Measured values from patent publication US11008572B2, “Methods and compositions for modulating splicing” (SKYHAWK THERAPEUTICS, INC., priority 2017, dated 2021).
Like-named read-outs stand apart in the source and are kept apart here.

Legend:
[1] = tested on: FOXM1^A2 mRNA and FOXM1^BC mRNA; assay: Splicing assay (FOXM1), qPCR of isoform mRNAs; assay type: cell-based; conditions: for IC50: FoxM1 BC mRNA decrease (exon included)
Procedure: Various cells lines were treated with the SMSMs described herein. RNA was then isolated, cDNA synthesized, qPCR performed and the levels of various mRNA targets of the SMSMs were determined. In some instances, RNA was isolated, cDNA synthesized, qPCR performed and the levels of mRNA isoforms in the various cell samples were determined.
On the day of the experiment, a 96-well plate was seeded with the cell lines of interest. The cells were diluted with full growth media to a concentration of 2.0×10^5 cells/mL and 100 μL of cells were added to each well (20,000 cells per well). The cells were treated with a compound immediately after plating.
The compounds were then added to the cell plate using the HP compound dispenser. In the initial experiment, a top concentration of 10 μM and an 8 point 4-fold dilution scheme was used. The stock compounds were made at a concentration of 5 mM, and the DMSO concentration was set to 0.2%. DMSO was used to normalize all the compound-containing wells and the untreated cells.
The treated cells were incubated at 37° C. in a 5% CO2 incubator for the desired amount of time. Plates were placed in a plastic bag with a wet paper towel to prevent evaporation.
RNA was isolated using the Cells to CT kit (ThermoFisher, AM1728). The cells were washed once with 100 μL cold PBS. 50 μL of lysis buffer was added to each well/tube (49.5 μL lysis buffer+0.5 μL DNase I per well/tube). The lysis reaction was mixed and incubated at room temperature for 5 minutes. 5 μL of stop solution was added directly into each cell lysis reaction and mixed by pipetting up and down 5 times. The plates/tubes were incubated at room temperature for 2 minutes then placed on ice if the cDNA synthesis was to be performed immediately. Otherwise, the plates/tubes were stored at −80° C. cDNA synthesis reactions were then performed. Reverse Transcription (RT) Master mix was prepared according to the table below.
40 μL RT master mix was added to PCR tubes or plate wells. 10 μL of RNA was added to each tube/well. The RT thermal cycler program was then run and tubes or plate wells were incubated at 37° C. for 1 hour, then at 95° C. for 5 minutes to deactivate the enzyme.
The qPCR was performed using a QuantStudio 6 instrument (ThermoFisher) and the following cycling conditions and according to the tables below. All samples and standards were analyzed in triplicate. Cycle 1: 2 minutes at 50° C. Cycle 2: 10 minutes at 95° C. Cycle 3 (repeat 40 times): 15 seconds at 95° C., 1 minute at 60° C.
The determined isoform 2and isoform 1quantities were then be used to determine the isoform 2: […] at the various compound concentrations. The PPIA quantities were used in the normalization to account of cell proliferation effects of the compounds.
The dilution necessary to make the top standard is calculated. A top concentration 200,000,000 copies/μL of the stock plasmid was prepared in TE buffer. A series of 10-fold dilutions, also in TE, were then made. A total of 5 μL of each standard was used in a qPCR well to generate samples containing 109 copies, […], 10^7copies, 10^6 copies, 10^5 copies, 10^4 copies, 10^3 copies, 10^2 copies, 10^1copies, and 0 copies.
An assay to measure the FOXM1^A2 mRNA and FOXM1^BC mRNA, or MADD^WT (isoform 4) mRNA and MADD^Ex16 (isoform 3) mRNA, or MAPTau^4R mRNA and MAPTau^3R mRNA simultaneously in cell wells was performed. The RNA values were measured relative to DMSO control and also included a housekeeping gene, PPIA to ensure data was consistent. The mRNA values were measured after 24 hours of incubation with the SMSM compounds.

A-673 cells = assay: Cell viability, crystal violet staining; assay type: cell-based
Summary of the method: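 Readout is absorbance at 570 nm of crystal violet, taken up in 0.1 M sodium citrate in 50% ethanol after staining with 0.5% dye in 25% methanol. Plates held 5×10^3 cells per well, and compounds were added one day after seeding for 72 hours. Data are relative to vehicle, mean±SE.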

[2] = read-out: Splice IC50 (nM) FoxM1 BC mRNA decrease (exon included)
[3] = read-out: Splice EC50 (nM) FoxM1 A mRNA increase (exon excluded)
[4] = Homo sapiens, A673, cell viability, read-out: A-673 IC50 (nM) Cell viability
[5] = FoxM1 A mRNA increase (exon excluded), 0.1-1000 nM, 24 hours, read-out: Splice EC50 (nM), FoxM1 A mRNA increase (exon excluded)
[6] = 24 h, 0.1-1000 nM, 24 hours, read-out: Splice IC50 (nM), FoxM1 BC mRNA decrease (exon included)
[7] = Homo sapiens, A673, cell viability, read-out: A-673 IC50 (nM), Cell viability

Compound	IC50 [1, 2]	EC50 [1, 3]	IC50 (A-673 cells; [4])	EC50 [1, 5]	also measured
CN(c1ccc(-c2ccc(-c3cn[nH]c3)cc2O)nn1)[C@H]1C[C@H]2COC[C@@H](C1)N2 [compound 155, 2-(6-(((1R,5S,7s)-3-oxa-9-azabicyclo[3.3.1]nonan-7-yl)(methyl)amino)pyridazin-3-yl)-5-(1H-pyrazol-4-yl)phenol]	> 1000 nM	> 1000 nM	> 1000 nM	–	–
CN(c1ccc(-c2ccc(-c3cnn(C(F)(F)F)c3)cc2O)nn1)[C@H]1C[C@]2(C)CC[C@](C)(C1)N2 [compound 186, 2-(6-(((1R,3s,5S)-1,5-dimethyl-8-azabicyclo[3.2.1]octan-3-yl)(methyl)amino)pyridazin-3-yl)-5-(1-(trifluoromethyl)-1H-pyrazol-4-yl)phenol]	101 to 250 nM	10 to 100 nM	> 1000 nM	–	–
2-(6-(((1R,3s,5S)-8-azabicyclo[3.2.1]octan-3-yl)oxy)pyridazin-3-yl)-5-(1H-1,2,3-triazol-4-yl)phenol [compound 253]	–	–	–	251 to 500 nM	IC50 ([1]; 0.1-1000 nM, 24 hours, read-out: Splice IC50 (nM), FoxM1 BC mRNA decrease (exon included)): 251 to 500 nM; IC50 (A-673 cells; cell viability, read-out: A-673 IC50 (nM), Cell viability): 501 to 1000 nM
CN(c1ccc(-c2ccc(-c3nnc(C(F)(F)F)o3)cc2O)nn1)[C@@H]1C[C@H]2CC[C@@H](C1)N2 [compound 232, 2-(6-(((1R,3s,5S)-8-azabicyclo[3.2.1]octan-3-yl)(methyl)amino)pyridazin-3-yl)-5-(5-(trifluoromethyl)-1,3,4-oxadiazol-2-yl)phenol]	–	–	–	101 to 250 nM	IC50 [1, 6]: 501 to 1000 nM; IC50 (A-673 cells; [7]): > 1000 nM
CN(c1ccc(-c2ccc(-c3cnn(C)c(=O)c3)cc2O)nn1)[C@H]1C[C@]2(C)CC[C@](C)(C1)N2 [compound 170, 5-(4-(6-(((1R,3s,5S)-1,5-dimethyl-8-azabicyclo[3.2.1]octan-3-yl)(methyl)amino)pyridazin-3-yl)-3-hydroxyphenyl)-2-methylpyridazin-3(2H)-one]	< 10 nM	< 10 nM	< 10 nM	–	–
Cc1nnn(-c2ccc(-c3ccc(N(C)[C@@H]4C[C@H]5CC[C@@H](C4)N5)nn3)c(O)c2)n1 [compound 234, 2-(6-(((1R,3s,5S)-8-azabicyclo[3.2.1]octan-3-yl)(methyl)amino)pyridazin-3-yl)-5-(5-methyl-2H-tetrazol-2-yl)phenol]	–	–	–	10 to 100 nM	IC50 [1, 6]: 10 to 100 nM; IC50 (A-673 cells; [7]): 10 to 100 nM
CN(c1ccc(-c2ccc(-c3cn[nH]c3)cc2O)nn1)[C@H]1C[C@H]2CC[C@@H](C1)N2 [compound 139, 2-(6-(((1R,3r,5S)-8-azabicyclo[3.2.1]octan-3-yl)(methyl)amino)pyridazin-3-yl)-5-(1H-pyrazol-4-yl)phenol]	> 1000 nM	> 1000 nM	> 1000 nM	–	–
[2H]C([2H])([2H])n1ccc(-c2ccc(-c3ccc(N(C)C4CC5CCCC(C4)N5)nn3)c(O)c2)cc1=O [compound 284, 4-(4-(6-(((1R,3s,5S)-9-azabicyclo[3.3.1]nonan-3-yl)(methyl)amino)pyridazin-3-yl)-3-hydroxyphenyl)-1-(methyl-d3)pyridin-2(1H)-one]	–	–	–	> 1000 nM	IC50 [1, 6]: < 10 nM; IC50 (A-673 cells; [7]): < 10 nM
CN(c1ccc(-c2cc(F)c(-c3cc[nH]c(=O)c3)cc2O)nn1)[C@H]1C[C@]2(C)CCC[C@](C)(C1)N2 [compound 307, 4-(4-(6-(((1R,3s,5S)-1,5-dimethyl-9-azabicyclo[3.3.1]nonan-3-yl)(methyl)amino)pyridazin-3-yl)-2-fluoro-5-hydroxyphenyl)pyridin-2(1H)-one]	–	–	–	–	IC50 ([1]; read-out: Splice IC50 (nM), FoxM1 BC mRNA decrease (exon included)): < 10 nM; EC50 ([1]; read-out: Splice EC50 (nM), FoxM1 A mRNA increase (exon excluded)): < 10 nM; IC50 (A-673 cells; Homo sapiens, A673, cell viability, read-out: A-673 IC50 (nM), cell viability): 10 to 100 nM
CN(c1cnc(-c2ccc(-c3cn[nH]c3)cc2O)cn1)C1CC(C)(C)NC(C)(C)C1 [compound 136, 2-(5-(methyl(2,2,6,6-tetramethylpiperidin-4-yl)amino)pyrazin-2-yl)-5-(1H-pyrazol-4-yl)phenol]	251 to 500 nM	101 to 250 nM	501 to 1000 nM	–	–
CN(c1ccc(-c2ccc(-c3ccn(C)c(=O)n3)cc2O)nn1)[C@H]1C[C@]2(C)CC[C@](C)(C1)N2 [compound 180, 4-(4-(6-(((1R,3s,5S)-1,5-dimethyl-8-azabicyclo[3.2.1]octan-3-yl)(methyl)amino)pyridazin-3-yl)-3-hydroxyphenyl)-1-methylpyrimidin-2(1H)-one]	10 to 100 nM	10 to 100 nM	101 to 250 nM	–	–
